Results as given in publication PMC5597618, “Identification and characterization of the novel reversible and selective cathepsin X inhibitors” (Scientific Reports, 2017).

Assays:
PC-12 cells = experiment: Cytotoxicity assay (MTS) in PC-12 cells; type: cell-based, rat; details: up to 10 μM, 24 and 48 hours
Method: Human prostate cancer cell line PC-3 cells (obtained from ATCC, Manassas, USA; ATCC Number: CRL-1435) were cultured in F-12 (Gibco) and Advanced DMEM (Gibco) (1:1) with 10% FBS, 1% penicillin/streptomycin and 1% L-glutamine. Rat pheochromocytoma PC-12 cells (obtained from ATCC, Manassas, USA; ATCC Number: CRL-1721) were cultured in Advanced DMEM (Gibco) with 5% FBS, 10% heat-inactivated horse serum, 1% penicillin/streptomycin and 1% L-glutamine.
6.5 × 10^4 PC-3 cells/ml were seeded in a 96-well plate. PC-12 cells were seeded on poly-L-lysine (Sigma) coated plates in serum-free medium at a concentration of 4 × 10^4/well. Cells were treated with various concentrations of compounds (1, 2.5, 5 and 10 μM) for 24 or 48 hours. Cytotoxicity was determined with MTS reagent (CellTiter 96 Aqueous One Solution Cell Proliferation Assay, Promega) and A492 measured after 1 hour.

[1] = biological target: T1, cathepsin X in PC-12 cell lysates (Rattus norvegicus, UniProt Q9R1T3); experiment: Cathepsin X activity in PC-12 cell lysates; type: cell-based; details: 10 μM
T1 construct: endogenous in cells; host or cells: PC-12
Method: To detect cathepsin X activity in cell lysates, 95 μL of activated cell lysates (0.2 mg/mL total protein in assay buffer) were added to a black 96-well plate containing 5 μL of the substrate. The further procedure was the same as above. In some experiments lysates of non-treated cells were pre-incubated with 10 μM of compounds for 30 minutes and then activity was measured as described above.
For testing the enzyme activity in cell lysates, cells were treated with 10 μM of compounds. After 24 hours lysates were prepared in 50 mM Na acetate buffer pH 5.5 with 1 mM EDTA, 100 mM NaCl and 0.25% Triton X-100. Total protein concentration was determined by DC Protein Assay (Bio Rad) according to the instructions.

T1 sequence (Q9R1T3 64-306): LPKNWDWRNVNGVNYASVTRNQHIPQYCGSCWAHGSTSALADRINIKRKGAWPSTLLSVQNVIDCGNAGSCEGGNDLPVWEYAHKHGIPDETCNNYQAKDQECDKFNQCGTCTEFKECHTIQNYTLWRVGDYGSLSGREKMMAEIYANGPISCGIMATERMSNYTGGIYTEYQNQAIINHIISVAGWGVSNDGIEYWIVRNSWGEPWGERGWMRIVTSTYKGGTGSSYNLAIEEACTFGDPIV

## CC(C)n1cnnc1SCC(=O)c1ccc2c(c1)OCCO2 [Compound 22, 1-(2,3-Dihydrobenzo[b][1,4]dioxin-6-yl)-2-((4-isopropyl-4H-1,2,4-triazol-3-yl)thio)ethan-1-one]
PC-12 cells
  cytotoxicity to PC-12 cells: not cytotoxic
[1]
  inhibition of cathepsin X activity in PC-12 cell lysates: most potent
